Measured values taken from patent US10940139B2, “Compounds that interact with the Ras superfamily for the treatment of cancers, inflammatory diseases, rasopathies, and fibrotic disease” (Shy Therapeutics LLC, priority 2017, dated 2021).

Columns and labels:
KRas G12D mutant protein = KRas G12D mutant protein (Homo sapiens (Human), UniProt P01116, G12D); test: Ras GTP binding domain inhibition assay (labeled GTP); settings: at 20 μM; read-out: KRas G12D % Inh.
Description: The following method was developed as specific assay for KRas G12D mutant protein.
Buffer-I: • 50 mM Tris, pH 7.5 • 150 mM NaCl (optional) • 1 mM MgCl2 • 1 mM DTT. • KRas G12D mutant protein was expressed as a His-tagged protein. Purified His-KRas G12D protein was diluted in buffer-I to a final concentration of 3-10 μg/ml. • 200 μl of the diluted His-KRas G12D protein was added to a nickel coated 96 well plate and incubated overnight at 4° C. • The next day, wells were washed 3× in 200 μl of Buffer-I. • Then 200 μl of Buffer-I were added to each well in the presence of 1% DMSO. • Tested compounds were added to the protein-coated wells at a concentration of 20 μM, and incubated for 3 hours at room temperature. While performing IC50 measurements a serial dilution of all tested concentrations was prepared.
Then 22 μl of Cy3-GTP or Cy5-GTP was added to each well. The labeled GTP was incubated for 45 min. at room temperature. • Following GTP incubation, wells were washed 3× in Buffer-I, and 200 μl of Buffer-I were added to each well. • Following washes, the amount of bound labeled-GTP was measured with an Eppendorf AF2200 plate reader.

Rac-1 = Rac-1 (Homo sapiens (Human), UniProt P63000); test: Rac inhibition assay (labeled GTP); assay type: binding; settings: read-out: Rac-1 % Inh.
Rho-A = Rho-A (Homo sapiens (Human), UniProt P61586); test: Rho inhibition assay (labeled GTP); assay type: binding; settings: read-out: Rho-A % Inh.
[1] = biological target: KRas G12D/Q61H double mutant (Homo sapiens (Human), UniProt P01116, G12D/Q61H); test: Ras GTP binding domain inhibition assay (labeled GTP); settings: at 20 μM; read-out: KRas G12D Q61H % Inh.
Outline: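 Inhibition of labeled GTP binding is measured on immobilized His-KRas protein in Tris buffer pH 7.5 with 1 mM MgCl2 and 1 mM DTT.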

Sequence of KRas G12D/Q61H double mutant (P01116-2 other isoform, or with tags, fused parts or gaps G12D/Q61H): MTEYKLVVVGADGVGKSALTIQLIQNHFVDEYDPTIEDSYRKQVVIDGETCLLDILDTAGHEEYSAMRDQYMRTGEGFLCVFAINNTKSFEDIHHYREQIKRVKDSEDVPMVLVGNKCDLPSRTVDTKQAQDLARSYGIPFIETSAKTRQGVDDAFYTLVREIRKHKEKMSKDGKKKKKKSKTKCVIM
Sequence of Rho-A (P61586 whole entry, the tested form may be a part): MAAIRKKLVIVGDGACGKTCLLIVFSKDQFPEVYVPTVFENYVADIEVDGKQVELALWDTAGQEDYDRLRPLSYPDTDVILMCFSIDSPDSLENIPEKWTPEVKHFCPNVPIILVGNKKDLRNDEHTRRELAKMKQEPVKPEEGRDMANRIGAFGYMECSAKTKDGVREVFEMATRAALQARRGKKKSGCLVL
Sequence of KRas G12D mutant protein (P01116-2 other isoform, or with tags, fused parts or gaps G12D): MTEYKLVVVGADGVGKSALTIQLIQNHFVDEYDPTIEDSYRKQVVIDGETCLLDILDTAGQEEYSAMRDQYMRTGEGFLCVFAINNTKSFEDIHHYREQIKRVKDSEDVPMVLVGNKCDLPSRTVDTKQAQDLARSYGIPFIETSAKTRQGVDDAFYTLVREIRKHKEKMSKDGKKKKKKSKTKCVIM

Row | SMILES | inhibition at 20 µM (KRas G12D mutant protein) [%] | inhibition at 20 µM (Rac-1) [%] | inhibition at 20 µM (Rho-A) [%] | inhibition at 20 µM [1] [%]
1 | COc1nc(-c2ccccn2)nc(Oc2cccc(C(F)(F)F)c2)c1O [drawing 3883] | 51 to 75 | 76 to 100 | 1 to 25 | 
2 | COCCNc1nc(-c2nccn2C)nc2sc(-c3ccccc3)c(-c3ccncc3)c12 [drawing 3914] | 51 to 75 | 76 to 100 | 76 to 100 | 
3 | COCCNc1nc(-c2cccc(N)n2)nc2sc(-c3ccccc3)c(-c3ccccc3)c12 [drawing 3909] | 0 | 0 | 0 | 
4 | CC(C)Oc1ccc(-c2csc3c(O)nc(-c4nccn4C)nc23)cc1F [drawing 3927] | 25 to 50 | 51 to 75 | 25 to 50 | 
5 | COCCNc1nc(-c2nccn2C)nc2sc(C3CCOCC3)c(-c3ccccc3)c12 [drawing 3908] | 51 to 75 | 76 to 100 | 51 to 75 | 
6 | Oc1nc(-c2ccncn2)nc2c(-c3cccc(C(F)(F)F)c3)csc12 [drawing 3925] | 1 to 25 | 1 to 25 | 1 to 25 | 
7 | COCCNc1nc(-c2cn(C)cn2)nc2sc(C)c(-c3ccccc3)c12 [drawing 3903] | 25 to 50 | 51 to 75 | 51 to 75 | 
8 | COCCNc1nc(-c2cn(C)cn2)nc2sc(-c3ccccc3)c(-c3ccccc3)c12 [drawing 3901] | 25 to 50 | 51 to 75 | 51 to 75 | 
9 | COCCNc1nc(-c2ccccn2)nc(-c2cccc(OCCN(C)C)c2)c1Oc1ccccc1 [drawing 3847] |  | 1 to 25 | 1 to 25 | 1 to 25
10 | O=C(c1csc2c(O)nc(-c3ccccn3)nc12)N1CCN(Cc2cccc(O)c2)CC1 [drawing 3629] |  | 76 to 100 | 76 to 100 | 76 to 100
11 | Oc1nc(-c2ccccn2)nc2c(-c3cncc(F)c3)csc12 [drawing 3782] |  | 1 to 25 | 1 to 25 | 1 to 25

Continued, values first:

Row | inhibition at 20 µM (KRas G12D mutant protein) [%] | inhibition at 20 µM (Rac-1) [%] | inhibition at 20 µM (Rho-A) [%] | inhibition at 20 µM [1] [%] | SMILES
12 | 25 to 50 | 51 to 75 | 51 to 75 |  | Cc1sc2c(O)nc(-c3nccn3C)nc2c1-c1ccccc1Cl [drawing 3920]
13 | 25 to 50 | 25 to 50 | 51 to 75 |  | Cc1sc2c(O)nc(-c3nccn3C)nc2c1-c1ccccc1 [drawing 3912]
14 | 1 to 25 | 25 to 50 | 25 to 50 |  | CC(O)CNc1nc(-c2nccn2C)nc2sc(-c3ccccc3)c(-c3ccccc3)c12 (stereo not drawn) [drawing 3887]
15 | 1 to 25 | 1 to 25 | 1 to 25 |  | COCC(C)Nc1nc(-c2nccn2C)nc2sc(-c3ccccc3)c(-c3ccccc3)c12 (stereo not drawn) [drawing 3895]
16 | 1 to 25 | 25 to 50 | 1 to 25 |  | Cn1ccnc1-c1nc(NCCOC2CC2)c2c(-c3ccccc3)c(-c3ccccc3)sc2n1 [drawing 3894]
17 | 25 to 50 | 1 to 25 | 1 to 25 |  | CCN(CC)CCOc1nc(-c2nccn2C)nc2sc(-c3ccccc3)c(-c3ccccc3)c12 [drawing 3891]
18 | 1 to 25 | 1 to 25 | 25 to 50 |  | CCOCCOc1nc(-c2nccn2C)nc2sc(-c3ccccc3)c(-c3ccccc3)c12 [drawing 3890]
19 | 0 | 0 | 1 to 25 |  | Cn1ccnc1-c1nc(O)c2sc(-c3ccccc3)c(-c3ccccc3)c2n1 [drawing 3906]
20 | 51 to 75 | 51 to 75 | 25 to 50 |  | Cn1ccnc1-c1nc(O)c2scc(-c3ccccc3)c2n1 [drawing 3932]
21 | 51 to 75 | 25 to 50 | 51 to 75 |  | COCCCNc1nc(-c2nccn2C)nc2sc(-c3ccccc3)c(-c3ccccc3)c12 [drawing 3888]
